Read-outs that look alike come from different tables or passages of the source.
Key:
[1] = test system: Huh-7.5 (human hepatoma cell line); experiment: Cytotoxicity MTT assay, Huh-7.5; assay type: cell-based
Method: (§1) This test is based on the reduction of 3-(4,5-dimethyl-2-thiazolyl)-2,5-diphenyl-2-tetrazole bromide by viable cells, with formation of violet insoluble formazan crystals. Five cell lines were used in order to evaluate the cytotoxic effect of the compounds as a whole.
(§2) The cytotoxicity of compounds 4, 16, 28 and copper oxychloride was determined by MTT assay. The cell lines used were HaCaT (human keratinocyte cell line—CLS 300493), Huh-7.5 (human hepatoma cell line—ATCC® PTA-8561), MRC-5 (human lung fibroblast cell line—ATCC CCL-171), VERO (monkey kidney epithelial cell line—ATCC® CCL81) and ACHN (human renal adenocarcinoma cell line—ATCC® CRL1611). The cells were cultured in appropriate medium recommended by the American Type Culture Collection.
(§3) The assay was performed with the concentration of 10^4 cells for both cell lines, distributed in 96-well plates and incubated at 37 °C in a 5% CO2 controlled atmosphere oven for 24 h. After the incubation period, the cells were treated with the compounds with a range of 1.56–200 μmol L^−1 and incubated for 24 h. The supernatant was removed, then 100 μL of 3-(4,5-dimethyl-2-thiazolyl)-2,5-diphenyl-2H-tetrazolium (MTT) salt at 1 mg mL^−1 diluted in DMEM medium (Gibco Life Technologies, Gaithersburg, MD, USA) was added and incubated for 30 min. Subsequently, the MTT was removed, then 100 μL of DMSO under agitation for 5 min at 60 rpm was added. The plates were read at 570 nm in a FLUOstar Omega/BMG LABTECH plate reader, Offenburg, BW, DE. We carried out the experiments in triplicate and three independent events for statistical analysis (GraphPad Software, San Diego, CA, USA). The MTT assay is based on the tetrazolium salt (yellow-colored) reduction to formazan (purple-colored) by metabolically active cells.

[2] = test system: MRC-5 (human lung fibroblast cell line); experiment: Cytotoxicity MTT assay, MRC-5; assay type: cell-based
Method: as §1, §2, §3

[3] = test system: X. citri subsp. citri strain 306 (IBSBF 1594); experiment: MBC, REMA plates replicated to Petri dishes; assay type: cell-based, Xanthomonas citri subsp. citri; details: Xanthomonas citri; Petri dishes from REMA plates, 29 °C, 24 to 48 h; read-out: MBC
Method: The minimal bactericidal concentration (MBC) was determined by observing the bacterial growth in Petri dishes transferred from the REMA plates.
(§4) The antibacterial activity of alkyl dihydroxybenzoates and the determination of minimum inhibition concentration (MIC) were performed by the fluorimetric method Resazurin Microtiter Assay (REMA) with some modifications. An overnight culture of X. citri subsp. citri strain 306 (IBSBF 1594) was grown in 20 mL in Nitrogen Yeast Glycerol (NYG) at 29 °C in constant agitation of 180–200 rpm. After 12 h, the Xcc inoculum was dispersed in NYG medium and distributed into a 96 well microtiter plate to a final volume of 100 μL per well (10^5 CFU per well). Stock solutions of tested compounds at 10 mg mL^−1 were prepared in dimethyl sulfoxide (DMSO) and dispersed in NYG medium to obtain 1% DMSO and the final compound concentration range of 0.78–100 μg mL^−1. The negative control was constituted of 100 μL culture medium. In addition, the copper oxychloride was tested as a comparison to alkyl dihydroxybenzoates and kanamycin (20 μg mL^−1), which was used as a control antibiotic. The plate was subsequently incubated at 29 °C for 12 h, and 15 μg mL^−1 freshly prepared resazurin solution in water was added to each well, and the plate was incubated for 2 h. The fluorescence was determined on a Synergy H1 (BioTek, Winooski, VT, USA) microplate reader using the excitation and emission filters at wavelengths of 530 and 590 nm respectively. After the REMA assay, the minimum bactericidal concentration (CBM) assay was performed using a 96-pin stainless steel plate replicator, accurately transferring the wells from the REMA plate to Petri dishes Petri dishes were incubated in oven B.O.D. at 29 °C for 24 to 48 h. The experiments were performed in triplicate.

[4] = test system: X. citri subsp. citri strain 306 (IBSBF 1594); experiment: MIC by Resazurin Microtiter Assay (REMA); assay type: cell-based, Xanthomonas citri subsp. citri; details: Xanthomonas citri, 12 h, REMA, NYG medium, 29 °C
Method: The antibacterial potential of carboxylic acids and their esters were compared to copper oxychloride (a commercial active often used to combat citrus canker). Minimal inhibitory concentration (MIC) values were determined by REMA assay, which measures cellular respiratory activity.
as §4

[5] = test system: HaCaT (human keratinocyte cell line); experiment: Cytotoxicity MTT assay, HaCaT; assay type: cell-based
Method: as §1, §2, §3

[6] = test system: VERO (monkey kidney epithelial cell line); experiment: Cytotoxicity MTT assay, VERO; assay type: cell-based
Method: as §1, §2, §3

[7] = Partition coefficient log Po/w by HPLC (OECD 117); assay type: physicochemical; details: HPLC method, OECD 117, methanol:water 3:1
Method: The analyses were performed with the use of an isocratic flow in methanol: water (3:1) at 1.0 mL min^−1. We injected 20.0 μL and analyses were performed at 254 nm. We used as reference compounds thiourea, phenol, acetophenone, benzoic acid, benzene, toluene, biphenyl, fluoranthene and triphenylamine in order to construct the curve log K × log Po/w. The lipophilicity of alkyl dihydroxybenzoates was determined from their retention times and interpolation in linearity curve log K × log Po/w. We performed the analyses in duplicate.

[8] = Homo sapiens, Huh7.5, 24 h, read-out: IC50 Huh-7,5, MTT, 24 h treatment
[9] = MTT, 24 h treatment, read-out: IC50 Huh-7,5
[10] = Homo sapiens, MRC5, 24 h, read-out: IC50 MRC-5, MTT, 24 h treatment
[11] = MTT, 24 h treatment, read-out: IC50 MRC-5
[12] = Homo sapiens, HaCaT, 24 h, read-out: IC50 HaCaT, MTT, 24 h treatment
[13] = MTT, 24 h treatment, read-out: IC50 HaCaT
[14] = Primates, Vero, 24 h, MTT, 24 h treatment, read-out: IC50 VERO

CCCCCCCOC(=O)c1ccc(O)cc1O [Compound 4] showed an IC50 [1, 8] of about 70 µM, an IC50 [1, 9] of 70.6 ± 5.52 µM and an IC50 [2, 10] of over 100 µM. The IC50 [2, 11] was 127 ± 4.59 µM, the MBC [3] was 25 µg/mL and the MIC ([4]; read-out: MIC in μM) was 52 µM. The IC50 [5, 12] was about 70 µM, the IC50 [5, 13] was 64.9 ± 8.91 µM and the IC50 ([6]; MTT, 24 h treatment, read-out: IC50 VERO) was 111 ± 8.34 µM. The IC50 ([6]; Primates, Vero, 24 h, read-out: IC50 VERO, MTT, 24 h treatment) was over 100 µM and the chromatographic logP [7] was 5.1.
With CCCCCCCOC(=O)c1cc(O)ccc1O [Compound 16] the IC50 ([1]; Homo sapiens, Huh7.5, 24 h, MTT, 24 h treatment, read-out: IC50 Huh-7,5) was 20.6 ± 0.23 µM, the IC50 [2, 10] was over 100 µM and the IC50 [2, 11] was 145 ± 6.29 µM. The MBC [3] was 25 µg/mL, the MIC ([4]; read-out: MIC in μM) was 80 µM and the IC50 [5, 12] was about 70 µM. For the same compound, the IC50 [5, 13] was 69.8 ± 4.87 µM, the IC50 [6, 14] was 93.5 ± 1.93 µM and the chromatographic logP [7] was 5.
Work on CCCCCCCOC(=O)c1ccc(O)c(O)c1 [Compound 28] yielded an IC50 [1, 8] of about 70 µM, an IC50 [1, 9] of 64.8 ± 14.9 µM and an IC50 [2, 10] of over 100 µM. It also gave an IC50 [2, 11] of 129 ± 2.12 µM, an MBC [3] of 50 µg/mL and an MIC ([4]; read-out: MIC) of 22.2 µg/mL. The MIC ([4]; read-out: MIC in μM) was 88 µM, the IC50 [5, 12] was about 70 µM and the IC50 [5, 13] was 74 ± 11.7 µM. The IC50 [6, 14] was 92.3 ± 9.34 µM and the chromatographic logP [7] was 4.3.

— paper PMC6213047, “Design of Antibacterial Agents: Alkyl Dihydroxybenzoates against Xanthomonas citri subsp. citri” (International Journal of Molecular Sciences, 2018)
